Experiments:
[1] = molecular target: T1, PAL from Petroselinum crispum (PcPAL) (Petroselinum crispum, UniProt P24481); experiment: Steady-state inhibition kinetics of PcPAL-catalyzed deamination of L-Phe; format: biochemical
PAL [2] = conditions: cited from earlier work
Y110F mutant of PcPAL = Y110F mutant of PcPAL (Petroselinum crispum, UniProt P24481, Y110F); experiment: Isothermal titration calorimetry with Y110F-PcPAL; format: binding; conditions: for Kd: PcPAL_Y110F K d, ITC, pH 8.0, 30 °C
PAL [3] = conditions: cited from earlier work; remark: listed apart in the source
[4] = molecular target: T1, PAL from Petroselinum crispum (PcPAL); conditions: with PcPAL; cited from earlier work
Pseudomonas putida HAL = conditions: 9 mM, incubation for 120 min in the presence of oxygen; cited from earlier work

## NC(C1(c2ccccc2)CC1)P(=O)(O)O.O (racemic) [(±)‐6, 1-Amino-1-(1-phenylcyclopropyl)methyl-phosphonic acid hydrate]
[1]
  Ki: > 1000 µM
[1]; best fitting inhibition model to the experimental data
  Type of inhibition: No inh.
[1]; up to 1 mM concentration
  Inhibition with PcPAL: no measurable inhibition

## N[C@H](Cc1ccccc1)C(=O)O [(R)‐1, D‐phenylalanine]
PAL [2]
  Type of inhibition: competitive inhibitor
Y110F mutant of PcPAL
  Kd: 29.1 µM
Y110F mutant of PcPAL; ΔΔG=ΔG wt−ΔG Y110F, contribution of the hydroxy group of Tyr110
  ΔΔG: -0.5 kcal/mol

## N[C@@H](Cc1ccccc1)C(=O)O [(S)‐1, L‐phenylalanine]
Y110F mutant of PcPAL
  Kd: 23 µM
PAL [3]
  Rate of ammonia elimination relative to D-phenylalanine: more than 4500 times

## NC1(P(=O)(O)O)Cc2ccccc2C1 [AIP, 2‐aminoindan‐2‐phosphonic acid]
PAL [2]
  Ki: 0.025 µM
[4]
  Slow binding behavior: one‐step slow binding mechanism

## NO[C@@H](Cc1ccccc1)C(=O)O [AOPP, (S)‐2‐aminooxy‐3‐phenylpropanoic acid]
PAL [2]
  Ki: 0.00038 µM

## N[C@@H](CCS)C(=O)O [L‐homocysteine]
Pseudomonas putida HAL
  Inhibition of HAL: irreversibly inhibited

From publication PMC5573973 (Advanced Synthesis & Catalysis, 2017)
